Experimental data reported in publication PMC5729604, “Dual inhibitors of hepatitis C virus and hepatocellular carcinoma: design, synthesis and docking studies” (Future Science OA, 2017).
In brackets after ≈: the same amount, converted by molar mass. Like-named read-outs stand apart in the source and are kept apart here.

What was measured:
[1] = test system: human HCC cell line HepG2; test: cells; assay type: cell-based; conditions: for IC50: Homo sapiens, HepG2, 72 h, neutral red; for IC50 / (LD0) HepG2 / Safe doses (100% viability of HepG2) LD0: 72 h; for in vitro anticancer activity against HepG2, in words: IC50 <100 μg/ml potential, 100-1000 μg/ml moderate; for (LD0) HepG2 / Safe doses (100% viability of HepG2) LD0: human
[2] = test system: human peripheral blood mononuclear cells (PBMCs); assay type: cell-based; conditions: 72 h
Procedure: The safe compounds on RBCs (5a-g, 5i-l, 5p-r, 5v-w, 6b-g) were subjected to the in vitro cytotoxicity assay on human peripheral blood mononuclear cells (PBMCs). Viability of cells was measured using neutral red uptake assay as described by Borenfreund and Puerner to determine the concentrations of each compound that were not cytotoxic. The results were interpreted to calculate both the lethal concentration that kills 50% of cells (LD50) and the maximum safe concentration that causes 100% viability (LD0) of each compound using GraphPad InStat 3.0 software (Figure 6 & Supplementary Table 3).
The PBMCs were isolated by density gradient centrifugation technique as described by Boyum. Blood samples were freshly collected into heparinized or ethylenediaminetetraacetic acid sterile tubes. Blood was diluted using equal volume of RPMI-1640 medium containing 25 mM HEPES and then layered over equal volume of Ficoll-Pague™ Plus (Fisher BioReagents™ Lymphocyte Separation Medium-LSM, PA, USA) and centrifuged (2000 r.p.m. for 30 min at acceleration and deceleration speeds zero & zero) at room temperature. The buffy mononuclear cell layer was collected using sterile Pasteur pipette into 50 ml sterile Falcon tube and washed twice in phosphate-buffered saline (Sigma-Aldrich) using centrifugation (1650 r.p.m. for 5 min). The isolated PBMCs viability was determined by hemocytometer count using the trypan blue exclusion method. The PBMCs were resuspended at 1 × 10^6 cells/ml in RPMI-1640 medium containing 25 mM HEPES supplemented with 10% heat-inactivated FBS. The appropriate number of cells was chosen to be 1 × 10^5 cells/well (100 μl of the prepared suspension).
A 2 mg/ml stock solution of each compound was prepared in DMF and filtered using a 0.2 μM syringe filter. The desired concentrations (20, 10, 5, 2.5 and 1.25 μg/ml) were prepared using serial dilution in a 96-well plate. Compound wells were prepared by adding 100 μl of the previously prepared concentrations to a suspension of 1 × 10^5 PBMCs in 100 μl culture media. Parallel concentrations of the solvent were prepared to be used as controls. Control wells were prepared by adding 100 μl culture media to a suspension of 1 × 10^5 PBMCs in 100 μl culture media. Blank wells contained 200 μl of culture media only (without cells or compound solution). Each set of samples was pipetted in duplicate. The plate was then gently shaken then incubated at 37°C, 5% CO2 for 72 h.
After incubation, neutral red assay was performed as described previously, and surviving cell fraction was calculated according to the previously mentioned equation. Also, the results were interpreted to calculate both the lethal concentration that kills 50% of cells (LD50) and the maximum safe concentration that cause 100% viability (LD0) of each compound using GraphPad InStat 3.0 software.

[3] = Supplementary Table 2, read-out: Anticancer (HepG2) IC50

Structure (SMILES) | IC50 [1, 3] [µg/mL] | IC50 ([1]; Table 1, read-out: IC50 (HepG2)) [µg/mL] | IC50 ([1]; read-out: IC50 against HepG2 cells) [µg/mL] | in vitro anticancer activity against HepG2, in words [1] | (LD0) HepG2 [1] [µg/mL] | Safe doses (100% viability of HepG2) LD0 [1] [µg/mL] | (LD0) PBMCs [2] [µg/mL] | LD0 [2] [µg/mL] | LD50 [2] [µg/mL] | Selectivity index ([1]; LD50 on PBMC / IC50 on HepG2) | LD50 (PBMCs) [2] [µg/mL] | LD0 on PBMCs [2]
CC(=NN=C1SC(=Cc2cn(-c3ccccc3)nc2-c2ccccc2)C(=O)N1c1ccc(Cl)cc1)c1cc2ccccc2o1 [Compound 5d, 2-[1-(Benzofuran-2-yl)ethylidenehydrazono]-5-[(1,3-Diphenyl-1H-pyrazol-4-yl)methylene]-3-(4-chlorophenyl)thiazolidin-4-one] | 1140 (≈ 1850 µM) | – | – | very weak anticancer activity | 163.55 | 163.55 | 11.43 | 11.43 | 160.43 | – | – | –
CC(=NN=C1SC(=Cc2cn(-c3ccccc3)nc2-c2ccccc2)C(=O)N1c1ccc(Cl)cc1)c1nc2ccccc2[nH]1 [Compound 5p, 2-[1-(1H-Benzimidazole-2-yl)ethylidenehydrazono]-5-[(1,3-Diphenyl-1H-pyrazol-4-yl)methylene]-3-(4-chlorophenyl)thiazolidin-4-one] | – | 46.5 (≈ 75.7 µM) | < 50 | potential in vitro anticancer activity | 13.32 | 13.22 | 12.67 | 12.67 | 120.46 | 2.58 | 120.46 | –
CC(=NN=C1SC(=Cc2cn(-c3ccccc3)nc2-c2ccccc2)C(=O)N1C1CCCCC1)c1nc2ccccc2[nH]1 [Compound 5v, 2-[1-(1H-Benzimidazole-2-yl)ethylidenehydrazono]-5-[(1,3-Diphenyl-1H-pyrazol-4-yl)methylene]-3-cyclohexylthiazolidin-4-one] | 250 (≈ 427 µM) | – | – | – | 30.89 | 30.89 | 13.85 | 13.85 | 43.40 | – | – | –

Now from value to compound, other results behind:

IC50 [1, 3] [µg/mL] | IC50 ([1]; Table 1, read-out: IC50 (HepG2)) [µg/mL] | IC50 ([1]; read-out: IC50 against HepG2 cells) [µg/mL] | Structure (SMILES) | in vitro anticancer activity against HepG2, in words [1] | (LD0) HepG2 [1] [µg/mL] | Safe doses (100% viability of HepG2) LD0 [1] [µg/mL] | (LD0) PBMCs [2] [µg/mL] | LD0 [2] [µg/mL] | LD50 [2] [µg/mL] | Selectivity index ([1]; LD50 on PBMC / IC50 on HepG2) | LD50 (PBMCs) [2] [µg/mL] | LD0 on PBMCs [2]
354 (≈ 689 µM) | – | – | CC(=NN=C1SC(=C2C(=O)Nc3ccccc32)C(=O)N1c1ccc(Cl)cc1)c1cc2ccccc2o1 [Compound 6b, 2-[1-(Benzofuran-2-yl)ethylidenehydrazono]-5-(2-oxoindolin-3-ylidene)-3-(4-chlorophenyl)thiazolidin-4-one] | – | 11.07 | 11.07 | 18.18 | 18.18 | 61.46 | – | – | –
154 (≈ 300 µM) | – | – | CC(=NN=C1SC(=C2C(=O)Nc3ccccc32)C(=O)N1c1ccc(Cl)cc1)c1nc2ccccc2[nH]1 [Compound 6f, 2-[1-(1H-Benzimidazole-2-yl)ethylidenehydrazono]-5-(2-oxoindolin-3-ylidene)-3-(4-chlorophenyl)thiazolidin-4-one] | – | 35.33 | 35.33 | 253.34 | 253.34 | 1369.42 | – | – | relatively high LD0 values
